Measured values reported in patent publication US9663496B2, “AMPK-activating heterocyclic compounds and methods for using the same” (Rigel Pharmaceuticals, Inc., priority 2010, dated 2017).

target: AMPK; experiment: AMPK activation, enzyme-linked immunosorbent assay; type: biochemical; settings: EC50 for AMPK activation, ELISA
Protocol: Compounds were assayed for their ability to activate AMPK using an enzyme-linked immunosorbent assay. Reagents and procedures for measuring AMPK activation are well known and kits for AMPK activation assays are commercially available.

SMILES	EC50 [nM]
COc1ccc(C(=O)C2CCN(C(=O)c3ccc(C(=O)NC4CCN(Cc5ccc(S(C)(=O)=O)cc5)CC4)cn3)CC2)cc1 [Compound 215, 6-(4-(4-methoxybenzoyl)piperidine-1-carbonyl)-N-(1-(4-(methylsulfonyl)benzyl)piperidin-4-yl)nicotinamide]	> 10000
O=C(NCc1ccccc1)c1ccc(C(=O)N2CCN(Cc3ccccc3)CC2)cn1 [Compound 116, N-benzyl-5-(4-benzylpiperazine-1-carbonyl)picolinamide]	1000 to 5000
N#Cc1ccc(O[C@H]2CC[C@H](NC(=O)c3ccc(C(=O)N4CCC(Oc5ccc(F)cc5)CC4)cn3)CC2)cc1 [Compound 169, N-((trans)-4-(4-cyanophenoxy)cyclohexyl)-5-(4-(4-fluorophenoxy)piperidine-1-carbonyl)picolinamide]	500 to 1000
CCOC(=O)C(c1ccccc1)N1CCC(NC(=O)c2ccc(C(=O)N3CCN(Cc4ccc(F)cc4)CC3)cn2)CC1 (stereo not drawn) [Compound 98, ethyl 2-(4-(5-(4-(4-fluorobenzyl)piperazine-1-carbonyl)picolinamido)piperidin-1-yl)-2-phenylacetate]	1000 to 5000
CC(C)(c1ccc(C#N)cc1)N1CCC(NC(=O)c2ccc(C(=O)N3CCN(Cc4ccc(F)cc4)CC3)cn2)CC1 [Compound 111, N-(1-(2-(4-cyanophenyl)propan-2-yl)piperidin-4-yl)-5-(4-(4-fluorobenzyl)piperazine-1-carbonyl)picolinamide]	1000 to 5000
N#Cc1ccc(CN2CCC(NC(=O)c3ccc(C(=O)N4CCCCC4Cc4ccc(F)cc4)cn3)CC2)cc1 (stereo not drawn) [Compound 153, N-(1-(4-cyanobenzyl)piperidin-4-yl)-5-(2-(4-fluorobenzyl)piperidine-1-carbonyl)picolinamide]	1000 to 5000
N#Cc1ccc(OC2CN(C(=O)c3ccc(C(=O)Nc4ccc(Oc5ccc(F)cc5)nc4)nc3)C2)cc1 [Compound 210, 5-(3-(4-cyanophenoxy)azetidine-1-carbonyl)-N-(6-(4-fluorophenoxy)pyridin-3-yl)picolinamide]	> 10000
N#Cc1ccc(CN2CCC(NC(=O)c3ccc(C(=O)N4CCN(C5CCOCC5)CC4)cn3)CC2)cc1 [Compound 83, N-(1-(4-cyanobenzyl)piperidin-4-yl)-5-(4-(tetrahydro-2H-pyran-4-yl)piperazine-1-carbonyl)picolinamide]	> 10000
N#Cc1ccc(CN2CCC(NC(=O)c3ccc(C(=O)NCCOc4ccc(F)cc4)cn3)CC2)cc1 [Compound 149, N2-(1-(4-cyanobenzyl)piperidin-4-yl)-N5-(2-(4-fluorophenoxy)ethyl)pyridine-2,5-dicarboxamide]	500 to 1000
O=C(NC1CCN(Cc2ccc(F)cc2)CC1)c1ccc(C(=O)N2CCC(C(=O)c3ccc(N4CCCC4)cc3)CC2)nc1 [Compound 381, N-(1-(4-fluorobenzyl)piperidin-4-yl)-6-(4-(4-(pyrrolidin-1-yl)benzoyl)piperidine-1-carbonyl)nicotinamide]	< 500
O=C(NC1CCN(Cc2ccc(F)cc2)CC1)c1ccc(C(=O)N2CCC(C(=O)c3ccc(F)cc3)CC2)cn1 [Compound 181, 5-(4-(4-fluorobenzoyl)piperidine-1-carbonyl)-N-(1-(4-fluorobenzyl)piperidin-4-yl)picolinamide]	< 500
O=C(Nc1cccc(-c2ccccc2)c1)c1ccc(C(=O)NC2CCN(Cc3ccccc3)CC2)nc1 [Compound 106, N2-(1-benzylpiperidin-4-yl)-N5-(biphenyl-3-yl)pyridine-2,5-dicarboxamide]	5000 to 10000
COc1ccc(OC2CCN(C(=O)c3ccc(C(=O)N[C@H]4CC[C@H](Oc5ccc(C#N)cc5)CC4)nc3)CC2)cc1 [Compound 172, N-((trans)-4-(4-cyanophenoxy)cyclohexyl)-5-(4-(4-methoxyphenoxy)piperidine-1-carbonyl)picolinamide]	< 500
COc1ccc(CN2CCC(NC(=O)c3ccc(C(=O)N4CCC(Oc5ccc(S(F)(F)(F)(F)F)cc5)CC4)nc3)CC2)cc1 [Compound 495, N-(1-(4-methoxybenzyl)piperidin-4-yl)-6-(4-(4-(pentafluorosulfanyl)phenoxy)piperidine-1-carbonyl)nicotinamide]	< 500
O=C(NC1CCN(Cc2ccccc2)CC1)c1ccc(C(=O)N2CCN(c3ccncc3)CC2)cn1 [Compound 96, N-(1-benzylpiperidin-4-yl)-5-(4-(pyridin-4-yl)piperazine-1-carbonyl)picolinamide]	> 10000
COc1ccc(OC2CCN(C(=O)c3ccc(C(=O)NC4CCN(Cc5ccc(F)cc5)CC4)nc3)CC2)cc1 [Compound 183, N-(1-(4-fluorobenzyl)piperidin-4-yl)-5-(4-(4-methoxyphenoxy)piperidine-1-carbonyl)picolinamide]	< 500
COc1ccc(C(=O)N2CCN(C(=O)c3ccc(C(=O)NC4CCN(Cc5ccc(C#N)cc5)CC4)nc3)CC2)cc1 [Compound 77, N-(1-(4-cyanobenzyl)piperidin-4-yl)-5-(4-(4-methoxybenzoyl)piperazine-1-carbonyl)picolinamide]	< 500
O=C(NC1CCN(Cc2cc(F)cc(F)c2)CC1)c1ccc(C(=O)N2CC[C@H](Oc3ccc(F)cc3)C2)cn1 [Compound 292, N-(1-(3,5-difluorobenzyl)piperidin-4-yl)-5-((S)-3-(4-fluorophenoxy)pyrrolidine-1-carbonyl)picolinamide]	< 500

Further lines, results first:

EC50 [nM]	SMILES
< 500	CS(=O)(=O)c1ccc(CN2CCC(NC(=O)c3ccc(C(=O)N4CCC(C(=O)c5ccc(F)cc5F)CC4)nc3)CC2)cc1 [Compound 213, 6-(4-(2,4-difluorobenzoyl)piperidine-1-carbonyl)-N-(1-(4-(methylsulfonyl)benzyl)piperidin-4-yl)nicotinamide]
< 500	N#Cc1ccc(OC2CCN(C(=O)c3ccc(C(=O)NC4CCN(Cc5nccs5)CC4)cn3)CC2)cc1 [Compound 356, 6-(4-(4-cyanophenoxy)piperidine-1-carbonyl)-N-(1-(thiazol-2-ylmethyl)piperidin-4-yl)nicotinamide]
< 500	N#Cc1ccc(CN2CCC(NC(=O)c3ccc(N4CCC(Oc5ccc(C(F)(F)F)cc5)CC4)nn3)CC2)cc1 [Compound 361, N-(1-(4-cyanobenzyl)piperidin-4-yl)-6-(4-(4-(trifluoromethyl)phenoxy)piperidin-1-yl)pyridazine-3-carboxamide]
< 500	O=C(Nc1ccc(Oc2ccc(F)cc2)nc1)c1ccc(C(=O)N2CCC(C(=O)c3ccc(N4CCCC4)cc3)CC2)cn1 [Compound 368, N-(6-(4-fluorophenoxy)pyridin-3-yl)-5-(4-(4-(pyrrolidin-1-yl)benzoyl)piperidine-1-carbonyl)picolinamide]
< 500	CS(=O)(=O)c1ccc(OC2CCN(C(=O)c3ccc(C(=O)NC4CCC(Oc5ccc(C#N)cc5)CC4)cn3)CC2)cc1 (stereo not drawn) [Compound 398, N-(4-(4-cyanophenoxy)cyclohexyl)-6-(4-(4-(methylsulfonyl)phenoxy)piperidine-1-carbonyl)nicotinamide]
< 500	N#Cc1ccc(OC2CCN(C(=O)c3ccc(C(=O)NC4CCN(c5ccc(C#N)cc5)CC4)cn3)CC2)cc1 [Compound 418, 6-(4-(4-cyanophenoxy)piperidine-1-carbonyl)-N-(1-(4-cyanophenyl)piperidin-4-yl)nicotinamide]
< 500	COc1ccc(C(=O)C2CCN(C(=O)c3ccc(C(=O)N(C)C4CCN(Cc5ccc(C#N)cc5)CC4)cn3)CC2)cc1 [Compound 482, N-(1-(4-cyanobenzyl)piperidin-4-yl)-6-(4-(4-methoxybenzoyl)piperidine-1-carbonyl)-N-methylnicotinamide]
< 500	N#Cc1ccc(CN2CCC(NC(=O)c3ccc(C(=O)N4CCN(c5ccc(C#N)cc5)CC4)cn3)CC2)cc1 [Compound 340, N-(1-(4-cyanobenzyl)piperidin-4-yl)-5-(4-(4-cyanophenyl)piperazine-1-carbonyl)picolinamide]
< 500	N#Cc1ccc(CN2CCC(C(=O)Nc3ccc(C(=O)N4CCC(Oc5ccc(F)cc5)CC4)cn3)CC2)cc1 [Compound 173, 1-(4-cyanobenzyl)-N-(5-(4-(4-fluorophenoxy)piperidine-1-carbonyl)pyridin-2-yl)piperidine-4-carboxamide]
< 500	CN(C)c1ccc(OC2CCN(C(=O)c3ccc(C(=O)NC4CCN(Cc5ccc(C#N)cc5)CC4)cn3)CC2)cc1 [Compound 370, N-(1-(4-cyanobenzyl)piperidin-4-yl)-6-(4-(4-(dimethylamino)phenoxy)piperidine-1-carbonyl)nicotinamide]
< 500	CC(=O)c1ccc(OC2CCN(C(=O)c3ccc(C(=O)NC4CCN(Cc5ccc(C#N)cc5)CC4)nc3)CC2)cc1 [Compound 358, 5-(4-(4-acetylphenoxy)piperidine-1-carbonyl)-N-(1-(4-cyanobenzyl)piperidin-4-yl)picolinamide]
< 500	COc1ccc(CN2CCC(NC(=O)c3ccc(C(=O)N4CCC(C(=O)c5ccc(N6CCCC6)cc5)CC4)nc3)CC2)cc1F [Compound 443, N-(1-(3-fluoro-4-methoxybenzyl)piperidin-4-yl)-6-(4-(4-(pyrrolidin-1-yl)benzoyl)piperidine-1-carbonyl)nicotinamide]
< 500	COc1ccc(C(=O)C2CCN(C(=O)c3ccc(C(=O)NC4CCN(Cc5ccc(C#N)cc5)CC4)nn3)CC2)cc1 [Compound 387, N-(1-(4-cyanobenzyl)piperidin-4-yl)-6-(4-(4-methoxybenzoyl)piperidine-1-carbonyl)pyridazine-3-carboxamide]
< 500	O=C(NC1CCN(Cc2ccc(OC(F)(F)F)cc2)CC1)c1ccc(C(=O)N2CCC(C(=O)c3ccc(N4CCCC4)cc3)CC2)nc1 [Compound 440, 6-(4-(4-(pyrrolidin-1-yl)benzoyl)piperidine-1-carbonyl)-N-(1-(4-(trifluoromethoxy)benzyl)piperidin-4-yl)nicotinamide]
< 500	COc1ccc(C(=O)C2CCN(C(=O)c3ccc(C(=O)N[C@H]4CC[C@@H](Oc5cc(F)cc(F)c5)CC4)nc3)CC2)cc1 [Compound 300, N-((cis)-4-(3,5-difluorophenoxy)cyclohexyl)-5-(4-(4-methoxybenzoyl)piperidine-1-carbonyl)picolinamide]
